{
  "source": "patent US6384086B1",
  "about": "“Ethene containing solutions and use thereof in methods of therapy or prophylaxis” (priority 1996, dated 2002)",
  "key": {"[1]": {"settings": "liquid containing reactive components"}, "[2]": {"tested_on": "eight bacterial strains representing four bacterial genera (Staphylococcus, Pseudomonas, Klebsiella, Enterococcus)"}, "[3]": {"tested_on": "Poliovirus type 1 (Sabin)"}, "Hepatitis C": {"tested_on": "Hepatitis C", "assay": "trial on a Hepatitis C sufferer, ALT count as infection marker", "type": "in vivo, human", "settings": "for reduction of ALT count: over 16 week trial period, same trialist, interferon 9 million IU weekly"}},
  "data": [
    {"compound": "C=C", "note": "[ethene]", "values": [
      {"measurement": "sterilizing effect in vitro", "setting": "Influenza A (H3N2)", "value": "not to be sterilized"},
      {"measurement": "sterilizing effect in vitro", "setting": "Herpes simplex virus", "value": "not to be sterilized"},
      {"measurement": "reduction of ethene in solution by reaction with other components", "setting": "[1]", "value": 50, "unit": "%"},
      {"measurement": "sterilizing effect in vitro", "setting": "[2]", "value": "without apparent sterilizing success"},
      {"measurement": "sterilizing effect in vitro", "setting": "[3]", "value": "not to be sterilized"},
      {"measurement": "anti-Hepatitis C efficacy better than the interferon therapy", "setting": "Hepatitis C; ALT reduction over 16 weeks", "value": 337, "unit": "%"},
      {"measurement": "depression (reported by trialist)", "setting": "Hepatitis C; during therapy", "value": "significant lifting"},
      {"measurement": "ALT count", "setting": "Hepatitis C; end of week 4 (from 242), daily 230 millilitres ethene gas in 745 millilitres purified water", "value": 218, "unit": "u/l"},
      {"measurement": "ALT count", "setting": "Hepatitis C; end of week 6", "value": 303, "unit": "u/l"},
      {"measurement": "ALT count", "setting": "Hepatitis C; end of week 14", "value": 93, "unit": "u/l"},
      {"measurement": "infection symptoms", "setting": "Hepatitis C; first 18 days therapy", "value": "amelioration of infection symptoms"},
      {"measurement": "reduction of ALT count", "setting": "Hepatitis C", "value": 153, "unit": "u/l"},
      {"measurement": "ALT count", "setting": "Hepatitis C; week 16", "value": 89, "unit": "u/l"}
    ]},
    {"compound": "interferon [reference compound]", "values": [
      {"measurement": "reduction of ALT count", "setting": "Hepatitis C", "value": 35, "unit": "u/l"}
    ]}
  ]
}
